Assay results as given in PubChem BioAssay AID1918998 (Molecular Pharmacology Branch, DTP, NCI, 2023).

System: 521955-158-R2-J5-PDC complex spheroid growth
Assay: Anticancer human tumor 521955-158-R2-J5-PDC patient-derived pancreatic carcinoma cell line growth inhibition [AhR]
Details: for IC50: curve of first compound; for viability, T/C: stronger effect = lower value
Method in brief: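 Agents were dosed in half-log steps down from roughly clinical Cmax, or from 10 microM where Cmax was unknown, alone and with AhR antagonists. Read-out: percent test/control growth of tumor spheroids containing HUVEC and MSC stromal cells.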

[1] = second compound 0.1 µM, first compound 0.0316 µM
[2] = second compound 0.1 µM, first compound 0.1 µM
[3] = second compound 0.1 µM, first compound 0.316 µM
[4] = second compound 0.1 µM, first compound 1 µM
[5] = second compound 0.1 µM, first compound 3.16 µM
[6] = second compound 0.1 µM, first compound 10 µM
[7] = second compound 0.316 µM, first compound 0.0316 µM
[8] = second compound 0.316 µM, first compound 0.1 µM
[9] = second compound 0.316 µM, first compound 0.316 µM
[10] = second compound 0.316 µM, first compound 1 µM
[11] = second compound 0.316 µM, first compound 3.16 µM
[12] = second compound 0.316 µM, first compound 10 µM
[13] = second compound 1 µM, first compound 0.0316 µM
[14] = second compound 1 µM, first compound 0.1 µM
[15] = second compound 1 µM, first compound 0.316 µM
[16] = second compound 1 µM, first compound 1 µM
[17] = second compound 1 µM, first compound 3.16 µM
[18] = second compound 1 µM, first compound 10 µM
[19] = second compound 3.16 µM, first compound 0.0316 µM
[20] = second compound 3.16 µM, first compound 0.1 µM
[21] = second compound 3.16 µM, first compound 0.316 µM
[22] = second compound 3.16 µM, first compound 1 µM
[23] = second compound 3.16 µM, first compound 3.16 µM
[24] = second compound 3.16 µM, first compound 10 µM
[25] = second compound 10 µM, first compound 0.0316 µM
[26] = second compound 10 µM, first compound 0.1 µM
[27] = second compound 10 µM, first compound 0.316 µM
[28] = second compound 10 µM, first compound 1 µM
[29] = second compound 10 µM, first compound 3.16 µM
[30] = second compound 10 µM, first compound 10 µM
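For viability, T/C in this document: spheroids mix tumor cells with HUVEC endothelium and human MSC stroma; luminescence taken as viability surrogate after a week of drug exposure.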

IC50 (second compound 0.1 µM)	IC50 (second compound 0.316 µM)	IC50 (second compound 1 µM)	IC50 (second compound 3.16 µM)	IC50 (second compound 10 µM)	Compound	viability, T/C [1]	viability, T/C [2]	viability, T/C [3]	viability, T/C [4]	viability, T/C [5]	viability, T/C [6]	viability, T/C [7]	viability, T/C [8]	viability, T/C [9]	viability, T/C [13]	viability, T/C [14]	viability, T/C [19]	viability, T/C [20]	viability, T/C [25]	viability, T/C [26]	further results
> 10 µM	> 10 µM	> 10 µM	> 10 µM	> 10 µM	CC(C)c1c(-c2ccccc2)nc2c(C#N)c[nH]n2c1=O + CC(CO)NC(=O)c1cc(-c2ccc(Cl)cc2)nn(-c2cnn(C)c2)c1=O	91%	83.6%	89.4%	91.4%	66.3%	78.2%	80.1%	103%	75.7%	82.1%	89.4%	98.5%	93.7%	84.5%	81.2%	viability, T/C [10]: 86.1%; viability, T/C [11]: 73.3%; viability, T/C [12]: 88.5%; viability, T/C [15]: 93.5%; viability, T/C [16]: 94.2%; viability, T/C [17]: 70.7%; viability, T/C [18]: 51.9%; viability, T/C [21]: 97%; viability, T/C [22]: 96.5%; viability, T/C [23]: 72%; viability, T/C [24]: 70%; viability, T/C [27]: 86.4%; viability, T/C [28]: 71.8%; viability, T/C [29]: 54.6%; viability, T/C [30]: 54.7%
> 10 µM	3.86 µM	5.97 µM	2.97 µM	1.9 µM	COc1ccc([C@@H](O)c2cc(-c3ncnc4cc(N5CCOCC5)ccc34)c(F)cc2Cl)nn1 + CC(CO)NC(=O)c1cc(-c2ccc(Cl)cc2)nn(-c2cnn(C)c2)c1=O	94.8%	90.2%	95.7%	89.7%	61.2%	50.9%	82.4%	98.9%	99.9%	114%	101%	104%	86.2%	87.7%	88.9%	viability, T/C [10]: 83%; viability, T/C [11]: 52.3%; viability, T/C [12]: 41.5%; viability, T/C [15]: 96.7%; viability, T/C [16]: 79.3%; viability, T/C [17]: 61.7%; viability, T/C [18]: 40.3%; viability, T/C [21]: 116%; viability, T/C [22]: 73%; viability, T/C [23]: 54.6%; viability, T/C [24]: 42.7%; viability, T/C [27]: 79.3%; viability, T/C [28]: 57.9%; viability, T/C [29]: 44.8%; viability, T/C [30]: 35.5%
0.0272 µM	0.0175 µM	0.0269 µM	0.0222 µM	0.0439 µM	CC[C@@]1(O)C(=O)OCc2c1cc1n(c2=O)Cc2cc3c(CN(C)C)c(O)ccc3nc2-1 + Cc1ccccc1N=Nc1ccc(NC(=O)c2ccnn2C)c(C)c1	45.7%	23%					34.7%	25.2%		44.6%	22.9%	41.1%	25.6%	59.9%	26.3%	viability, T/C (second compound 0.1 µM, first compound 0.000316 µM): 76.7%; viability, T/C (second compound 0.1 µM, first compound 0.001 µM): 79.3%; viability, T/C (second compound 0.1 µM, first compound 0.00316 µM): 89.5%; viability, T/C (second compound 0.1 µM, first compound 0.01 µM): 78.6%; viability, T/C (second compound 0.316 µM, first compound 0.000316 µM): 92.1%; viability, T/C (second compound 0.316 µM, first compound 0.001 µM): 100%; viability, T/C (second compound 0.316 µM, first compound 0.00316 µM): 88.8%; viability, T/C (second compound 0.316 µM, first compound 0.01 µM): 64.7%; viability, T/C (second compound 1 µM, first compound 0.000316 µM): 98.2%; viability, T/C (second compound 1 µM, first compound 0.001 µM): 113%; viability, T/C (second compound 1 µM, first compound 0.00316 µM): 114%; viability, T/C (second compound 1 µM, first compound 0.01 µM): 87.8%; viability, T/C (second compound 3.16 µM, first compound 0.000316 µM): 119%; viability, T/C (second compound 3.16 µM, first compound 0.001 µM): 131%; viability, T/C (second compound 3.16 µM, first compound 0.00316 µM): 122%; viability, T/C (second compound 3.16 µM, first compound 0.01 µM): 77.3%; viability, T/C (second compound 10 µM, first compound 0.000316 µM): 130%; viability, T/C (second compound 10 µM, first compound 0.001 µM): 122%; viability, T/C (second compound 10 µM, first compound 0.00316 µM): 131%; viability, T/C (second compound 10 µM, first compound 0.01 µM): 107%
